Laboratory results from PMC8558867, “Development of BromoTag: A “Bump-and-Hole”–PROTAC System to Induce Potent, Rapid, and Selective Degradation of Tagged Target Proteins” (Journal of Medicinal Chemistry, 2021).
Read-outs that look alike come from different tables or passages of the source.

How the values were obtained:
BromoTag-Brd2 = assay: Dose–response degradation assay (western blot, 6 h) in heterozygous BromoTag-Brd2 HEK293 cells; assay type: cell-based, human; details: for DC50 / Dmax of BromoTag-Brd2 degradation / hook effect: 6 h; for DC50: read-out: DC50 of BromoTag-Brd2 degradation; for Dmax (%) (Ab: Brd2) / Dmax (%) (Ab: Brd4^BD2 L387A) / pDC50 (Ab: Brd2) / pDC50 (Ab: Brd4^BD2 L387A): BromoTagged-Brd2, 6 h; for pDC50 (Ab: Brd2) / pDC50 (Ab: Brd4^BD2 L387A): mean ±S.E of three independent experiments; for hook effect: higher concentrations of 1–10 μM; for pDmax (%) (Ab: Brd4BD2 L387A) / pDmax (%) (Ab:Brd2): supplementary CSV
Protocol: All dose–response degradation assays were performed on the genotype-verified heterozygous BromoTag-Brd2 HEK293 cell line. Heterozygous BromoTag-Brd2 HEK293 cells were plated at a density of 5 × 10^5 cells per well of a six-well healthy plate a day before initiation of the titration experiment. PROTAC compounds were dissolved in DMSO at a concentration of 10 mM; from these stock concentrations, PROTAC compounds were diluted to appropriate concentrations using DMSO in the range of 10 μM to 1 nM. […] Control compounds such as MZ1 and cis-MZ1 were similarly dissolved in DMSO to an appropriate concentration. […] The cells were washed twice with PBS before being harvested.
The membranes were blocked for 1 h prior to incubation with the primary antibodies using 5% Milk TBST. […] Following overnight incubation with the primary antibodies at 4 °C, the membranes were incubated with secondary antibodies (anti-rabbit, Abcam AB216773, 1:5000 or anti-mouse, Abcam AB216774, 1:5000) and hFABTM rhodamine anti-tubulin antibody (Biorad, 12004165, 1:10,000) for 1 h and then imaged with a Bio-Rad imager (LI-COR Biosciences). All western blots were analyzed for band intensities using Image Lab from Bio-Rad (LI-COR, Biosciences). The data extracted from these blots were then plotted and analyzed using Prism (v. 8.2.0, GraphPad).

[1] = tested on: untagged Brd2, Brd3, Brd4; assay: Off-target degradation of endogenous BET proteins (western blot) in heterozygous BromoTag-Brd2 HEK293 cells; assay type: cell-based, human
From the text: To establish the BromoTag platform and support the degrader structure–activity relationships (SARs) to identify the best compound, we sought a practical and simple system that enables us to best optimize not only the degradation efficiency but also the selectivity profile of our degraders. To this end, the endogenous BET family protein Brd2 was chosen as a model target due to the availability of a well-established antibody for Brd2 detection, and the expression of a single protein isoform detected as a single band in the western blot.[24] Because Brd2 contains endogenous bromodomains and is degraded by 1 and other BET PROTACs, we reasoned that a heterozygous knock-in cell line allows us to monitor simultaneously both on-target degradation (BromoTagged-Brd2) and off-target degradation (untagged Brd2) using the same antibody. Together with the potential off-target degradation of the other BET proteins Brd3 and Brd4, this system thus enables us to best monitor protein degradation selectivity. We therefore decided to add the BromoTag at the N-terminus of the endogenous Brd2 gene locus using CRISPR knock-in methodologies, thereby yielding a chimeric protein bearing three bromodomains (the exogenous BromoTag, in addition to the endogenous Brd2^BD1 and Brd2^BD2). Hereafter, we refer to on-target activity as the degradation of BromoTag-Brd2 and off-target activity as any degradation of either untagged Brd2 or endogenous Brd3 or Brd4.
All dose–response degradation assays were performed on the genotype-verified heterozygous BromoTag-Brd2 HEK293 cell line. Heterozygous BromoTag-Brd2 HEK293 cells were plated at a density of 5 × 10^5 cells per well of a six-well healthy plate a day before initiation of the titration experiment. PROTAC compounds were dissolved in DMSO at a concentration of 10 mM; from these stock concentrations, PROTAC compounds were diluted to appropriate concentrations using DMSO in the range of 10 μM to 1 nM. The compounds were then added to 2 mL of DMEM (Invitrogen, Carlsbad, CA, USA) supplemented with 10% (v/v) FBS (Thermo Fisher, Waltham, MA, USA) and 1% (v/v) penicillin/streptomycin (pen/strep) (#15140122, Thermo Fisher, Waltham, MA, USA) and added to the cells while initiating the experiment. Control compounds such as MZ1 and cis-MZ1 were similarly dissolved in DMSO to an appropriate concentration. All titration experiments were performed for a total of 6 h prior to being harvested and were kept at 37 °C, 5% CO2, and 95% humidity once treatment was applied until right before harvesting. The cells were washed twice with PBS before being harvested.
All cells were harvested on ice with RIPA lysis and extraction buffer (Thermo Fisher Scientific, 89901) supplemented with protease inhibitor cocktail (Merck, 11697498001) and Benzonase Nuclease (Sigma, E1014) before being stored at −20 °C prior to use. Total protein quantity was determined using the BCA protein assay (#23225, Pierce, Rockford, Illinois). The protein concentration was determined using the BCA assay (Thermo Fisher Scientific, 23225). The samples were then prepared and loaded onto NuPAGE 4–12% bis–tris Midi gels (Thermo Fisher Scientific, WG1403A), followed by the transfer of proteins onto nitrocellulose membranes (EMD Millipore). The membranes were blocked for 1 h prior to incubation with the primary antibodies using 5% Milk TBST. The membranes were probed for Brd2 (Abcam, Ab139690, 1:1000), Brd3 (Abcam, Ab50818, 1:4000), Brd4 (Abcam, Ab128874, 1:1000), or our polyclonal Brd4^BD2 L387A antibody. Following overnight incubation with the primary antibodies at 4 °C, the membranes were incubated with secondary antibodies (anti-rabbit, Abcam AB216773, 1:5000 or anti-mouse, Abcam AB216774, 1:5000) and hFABTM rhodamine anti-tubulin antibody (Biorad, 12004165, 1:10,000) for 1 h and then imaged with a Bio-Rad imager (LI-COR Biosciences). All western blots were analyzed for band intensities using Image Lab from Bio-Rad (LI-COR, Biosciences). […]

[2] = diastereomeric mixtures, range over the two antibodies
[3] = 1 nM to 10 μM, 6 h, diastereomeric mixtures

Row | Compound | DC50 (BromoTag-Brd2; diastereomeric mixture) [nM] | Dmax of BromoTag-Brd2 degradation (BromoTag-Brd2; diastereomeric mixtures) [%] | Dmax (%) (Ab: Brd2) (BromoTag-Brd2; diastereomeric mixtures) | Dmax (%) (Ab: Brd4^BD2 L387A) (BromoTag-Brd2; diastereomeric mixtures) | pDC50 (Ab: Brd2) (BromoTag-Brd2; diastereomeric mixtures) | pDC50 (Ab: Brd4^BD2 L387A) (BromoTag-Brd2; diastereomeric mixtures) | hook effect (BromoTag-Brd2; diastereomeric mixtures) | pDmax (%) (Ab: Brd4BD2 L387A) (BromoTag-Brd2) | pDmax (%) (Ab:Brd2) (BromoTag-Brd2) | DC50 (BromoTag-Brd2; [2]) [nM] | off-target degradation of untagged Brd2 or the other endogenous BET proteins [1] | off-target degradation of untagged Brd2 or the other endogenous BET proteins [1, 3]
1 | CCC(C(=O)NCCOCCCOCC(=O)N[C@H](C(=O)N1C[C@H](O)C[C@H]1C(=O)N[C@@H](C)c1ccc(-c2scnc2C)cc1)C(C)(C)C)C1N=C(c2ccc(Cl)cc2)c2c(sc(C)c2C)-n2c(C)nnc21 (relative stereo) [ET-ARV-771 (21), (2S,4R)-1-((2S,15R*)-2-(tert-Butyl)-15-((S*)-4-(4-chlorophenyl)-2,3,9-trimethyl-6H-thieno[3,2-f][1,2,4]triazolo[4,3-a][1,4]diazepin-6-yl)-4,14-dioxo-6,10-dioxa-3,13-diazaheptadecanoyl)-4-hydroxy-N-((S)-1-(4-(4-methylthiazol-5-yl)phenyl)ethyl)pyrrolidine-2-carboxamide] | ~1000 | < 70 | 51 | 69 | 5.7 ± 1.8 | 6.1 ± 0.3 | strong hook effect | 69 | 51 |  |  | 
2 | CCC(C(=O)NCCOCCOCCOCC(=O)N[C@H](C(=O)N1C[C@H](O)C[C@H]1C(=O)NCc1ccc(-c2scnc2C)cc1)C(C)(C)C)C1N=C(c2ccc(Cl)cc2)c2c(sc(C)c2C)-n2c(C)nnc21 (relative stereo) [ET-MZ1 (19), (2S,4R)-1-((2S,17R*)-2-(tert-Butyl)-17-((S*)-4-(4-chlorophenyl)-2,3,9-trimethyl-6H-thieno[3,2-f][1,2,4]triazolo[4,3-a][1,4]diazepin-6-yl)-4,16-dioxo-6,9,12-trioxa-3,15-diazanonadecanoyl)-4-hydroxy-N-(4-(4-methylthiazol-5-yl)benzyl)pyrrolidine-2-carboxamide] |  |  |  |  | 6.5 ± 0.2 | 6.6 ± 0.6 | no hook effect |  |  | 250 to 360 | no observable off-target degradation | 
3 | CC[C@@H](C(=O)OCCOCCCOCC(=O)N[C@H](C(=O)N1C[C@H](O)C[C@H]1C(=O)N[C@@H](C)c1ccc(-c2scnc2C)cc1)C(C)(C)C)[C@@H]1N=C(c2ccc(Cl)cc2)c2c(sc(C)c2C)-n2c(C)nnc21 (relative stereo) [ET-OARV-771 (25), 2-(3-(2-(((S)-1-((2S,4R)-4-Hydroxy-2-(((S)-1-(4-(4-methylthiazol-5-yl)phenyl)ethyl)carbamoyl)pyrrolidin-1-yl)-3,3-dimethyl-1-oxobutan-2-yl)amino)-2-oxoethoxy)propoxy)ethyl (R*)-2-((S*)-4-(4-chlorophenyl)-2,3,9-trimethyl-6H-thieno[3,2-f][1,2,4]triazolo[4,3-a][1,4]diazepin-6-yl)butanoate] |  | > 75 |  |  |  |  | strong onset of the hook effect |  |  | 13 to 16 | minor off-target degradation of Brd3 | 
4 | CCC(C(=O)OCCOCCOCCOCC(=O)N[C@H](C(=O)N1C[C@H](O)C[C@H]1C(=O)NCc1ccc(-c2scnc2C)cc1)C(C)(C)C)C1N=C(c2ccc(Cl)cc2)c2c(sc(C)c2C)-n2c(C)nnc21 (relative stereo) [ET-OMZ1 (23), (S)-13-((2S,4R)-4-Hydroxy-2-((4-(4-methylthiazol-5-yl)benzyl)carbamoyl)pyrrolidine-1-carbonyl)-14,14-dimethyl-11-oxo-3,6,9-trioxa-12-azapentadecyl (R*)-2-((S*)-4-(4-chlorophenyl)-2,3,9-trimethyl-6H-thieno[3,2-f][1,2,4]triazolo[4,3-a][1,4]diazepin-6-yl)butanoate] |  | > 75 |  |  | 7.9 ± 0.2 | 7.1 | strong onset of the hook effect |  |  | 13 to 80 | no observable off-target degradation | 
5 | Cc1ncsc1-c1ccc([C@H](C)NC(=O)[C@@H]2C[C@@H](O)CN2C(=O)[C@@H](NC(=O)COCCCOCCNC(=O)C(C)C2N=C(c3ccc(Cl)cc3)c3c(sc(C)c3C)-n3c(C)nnc32)C(C)(C)C)cc1 (relative stereo) [ME-ARV-771 (20), (2S,4R)-1-((2S,15R*)-2-(tert-Butyl)-15-((S*)-4-(4-chlorophenyl)-2,3,9-trimethyl-6H-thieno[3,2-f][1,2,4]triazolo[4,3-a][1,4]diazepin-6-yl)-4,14-dioxo-6,10-dioxa-3,13-diazahexadecanoyl)-4-hydroxy-N-((S)-1-(4-(4-methylthiazol-5-yl)phenyl)ethyl)pyrrolidine-2-carboxamide] |  |  | 60 | 70 | 6.4 ± 0.6 | 6.5 ± 0.4 |  | 70 | 60 |  |  | induced undesired off-target degradation
6 | Cc1ncsc1-c1ccc(CNC(=O)[C@@H]2C[C@@H](O)CN2C(=O)[C@@H](NC(=O)COCCOCCOCCNC(=O)C(C)C2N=C(c3ccc(Cl)cc3)c3c(sc(C)c3C)-n3c(C)nnc32)C(C)(C)C)cc1 (relative stereo) [ME-MZ1 (18), (2S,4R)-1-((2S,17R*)-2-(tert-Butyl)-17-((S*)-4-(4-chlorophenyl)-2,3,9-trimethyl-6H-thieno[3,2-f][1,2,4]triazolo[4,3-a][1,4]diazepin-6-yl)-4,16-dioxo-6,9,12-trioxa-3,15-diazaoctadecanoyl)-4-hydroxy-N-(4-(4-methylthiazol-5-yl)benzyl)pyrrolidine-2-carboxamide] |  |  |  |  |  |  |  | 90 | 92 |  |  | induced undesired off-target degradation
7 | Cc1ncsc1-c1ccc([C@H](C)NC(=O)[C@@H]2C[C@@H](O)CN2C(=O)[C@@H](NC(=O)COCCCOCCOC(=O)C(C)C2N=C(c3ccc(Cl)cc3)c3c(sc(C)c3C)-n3c(C)nnc32)C(C)(C)C)cc1 (relative stereo) [ME-OARV-771 (24), 2-(3-(2-(((S)-1-((2S,4R)-4-Hydroxy-2-(((S)-1-(4-(4-methylthiazol-5-yl)phenyl)ethyl)carbamoyl)pyrrolidin-1-yl)-3,3-dimethyl-1-oxobutan-2-yl)amino)-2-oxoethoxy)propoxy)ethyl (R*)-2-((S*)-4-(4-chlorophenyl)-2,3,9-trimethyl-6H-thieno[3,2-f][1,2,4]triazolo[4,3-a][1,4]diazepin-6-yl)propanoate] |  |  |  |  |  |  |  | 91 | 91 |  |  | induced undesired off-target degradation
8 | Cc1ncsc1-c1ccc(CNC(=O)[C@@H]2C[C@@H](O)CN2C(=O)[C@@H](NC(=O)COCCOCCOCCOC(=O)[C@H](C)[C@@H]2N=C(c3ccc(Cl)cc3)c3c(sc(C)c3C)-n3c(C)nnc32)C(C)(C)C)cc1 (relative stereo) [ME-OMZ1 (22), (S)-13-((2S,4R)-4-Hydroxy-2-((4-(4-methylthiazol-5-yl)benzyl)carbamoyl)pyrrolidine-1-carbonyl)-14,14-dimethyl-11-oxo-3,6,9-trioxa-12-azapentadecyl (R*)-2-((S*)-4-(4-chlorophenyl)-2,3,9-trimethyl-6H-thieno[3,2-f][1,2,4]triazolo[4,3-a][1,4]diazepin-6-yl)propanoate] |  |  |  |  |  |  |  | 94 | 96 |  |  | induced undesired off-target degradation
